Experimental data from ChEMBL document CHEMBL1131723, “Synthesis and structure-activity relationship of novel glycylcycline derivatives leading to the discovery of GAR-936” (1999).
In brackets after ≈: the same amount, converted by molar mass.

Columns and labels:
Assay type in all cases: functional
Escherichia coli [1] = experiment: In vitro antibacterial activity against Escherichia coli UBMS 88-1 Tet B
Staphylococcus aureus [2] = experiment: In vitro antibacterial activity against Staphylococcus aureus UBMS 90-3 sensitive
Escherichia coli [3] = experiment: In vitro antibacterial activity against Escherichia coli UBMS 90-4 Tet M
Staphylococcus aureus [4] = experiment: In vitro antibacterial activity against Staphylococcus aureus UBMS 90-1 Tet M
Staphylococcus aureus [5] = experiment: In vitro antibacterial activity against Staphylococcus aureus Smith sensitive
Escherichia coli [6] = experiment: In vitro antibacterial activity against Escherichia coli PRP1 Tet A
Escherichia coli [7] = experiment: In vitro antibacterial activity against Escherichia coli J3272 Tet D
Escherichia coli [8] = experiment: In vitro antibacterial activity against Escherichia coli J3272 Tet C
Escherichia coli [9] = experiment: In vitro antibacterial activity against Escherichia coli UBMS 90-5 sensitive
Staphylococcus aureus [10] = experiment: In vitro antibacterial activity against Staphylococcus aureus UBMS 88-7 Tet K
Enterococcus = experiment: In vitro antibacterial activity against Enterococcus ATCC 29212

With `CN(C)c1cc(NC(=O)CN2CCSCC2)c(O)c2c1CC1CC3[C@H](N(C)C)C(=O)C(C(N)=O)=C(O)[C@@]3(O)C(=O)C1=C2O` (stereo partly specified) the MIC (Escherichia coli [1]) was greater than 32 µg/mL, the MIC (Staphylococcus aureus [2]) was 1 µg/mL (≈ 1.62 µM) and the MIC (Escherichia coli [3]) was greater than 32 µg/mL. It also gave an MIC (Staphylococcus aureus [4]) of 1 µg/mL (≈ 1.62 µM), an MIC (Staphylococcus aureus [5]) of 0.5 µg/mL (≈ 0.812 µM) and an MIC (Escherichia coli [6]) greater than 32 µg/mL. It also gave an MIC (Escherichia coli [7]) of 16 µg/mL (≈ 26 µM), an MIC (Escherichia coli [8]) greater than 32 µg/mL and an MIC (Escherichia coli [9]) greater than 32 µg/mL. It also gave an MIC (Staphylococcus aureus [10]) of 4 µg/mL (≈ 6.5 µM) and an MIC (Enterococcus) of 0.25 µg/mL (≈ 0.406 µM).

With `CCCCCCNCC(=O)Nc1cc(N(C)C)c2c(c1O)C(=O)C1=C(O)[C@]3(O)C(O)=C(C(N)=O)C(=O)[C@@H](N(C)C)C3CC1C2` (stereo partly specified) the MIC (Escherichia coli [1]) was 0.5 µg/mL (≈ 0.815 µM), the MIC (Staphylococcus aureus [2]) was 0.06 µg/mL (≈ 0.0978 µM) and the MIC (Escherichia coli [3]) was 0.25 µg/mL (≈ 0.407 µM). It also gave an MIC (Staphylococcus aureus [4]) of 0.25 µg/mL (≈ 0.407 µM), an MIC (Staphylococcus aureus [5]) of 0.12 µg/mL (≈ 0.196 µM) and an MIC (Escherichia coli [6]) of 0.5 µg/mL (≈ 0.815 µM). For the same compound, the MIC (Escherichia coli [7]) was 0.12 µg/mL (≈ 0.196 µM), the MIC (Escherichia coli [8]) was 0.5 µg/mL (≈ 0.815 µM) and the MIC (Escherichia coli [9]) was 0.25 µg/mL (≈ 0.407 µM). For the same compound, the MIC (Staphylococcus aureus [10]) was 2 µg/mL (≈ 3.26 µM) and the MIC (Enterococcus) was 0.12 µg/mL (≈ 0.196 µM).

`CN(C)c1cc(NC(=O)CNC2CC2)c(O)c2c1CC1CC3[C@H](N(C)C)C(=O)C(C(N)=O)=C(O)[C@@]3(O)C(=O)C1=C2O` (stereo partly specified) showed an MIC (Escherichia coli [1]) of 4 µg/mL (≈ 7.02 µM), an MIC (Staphylococcus aureus [2]) of 0.5 µg/mL (≈ 0.878 µM) and an MIC (Escherichia coli [3]) of 2 µg/mL (≈ 3.51 µM). The MIC (Staphylococcus aureus [4]) was 0.5 µg/mL (≈ 0.878 µM), the MIC (Staphylococcus aureus [5]) was 0.25 µg/mL (≈ 0.439 µM) and the MIC (Escherichia coli [6]) was 32 µg/mL (≈ 56.2 µM). It also gave an MIC (Escherichia coli [7]) of 2 µg/mL (≈ 3.51 µM), an MIC (Escherichia coli [8]) of 8 µg/mL (≈ 14 µM) and an MIC (Escherichia coli [9]) of 2 µg/mL (≈ 3.51 µM). It also gave an MIC (Staphylococcus aureus [10]) of 4 µg/mL (≈ 7.02 µM) and an MIC (Enterococcus) of 0.25 µg/mL (≈ 0.439 µM).

For `CCCCNCC(=O)Nc1cc(N(C)C)c2c(c1O)C(=O)C1=C(O)[C@]3(O)C(O)=C(C(N)=O)C(=O)[C@@H](N(C)C)C3CC1C2` (stereo partly specified), the MIC (Escherichia coli [1]) was 0.5 µg/mL (≈ 0.854 µM), the MIC (Staphylococcus aureus [2]) was 0.25 µg/mL (≈ 0.427 µM) and the MIC (Escherichia coli [3]) was 0.25 µg/mL (≈ 0.427 µM). The MIC (Staphylococcus aureus [4]) was 0.5 µg/mL (≈ 0.854 µM), the MIC (Staphylococcus aureus [5]) was 0.12 µg/mL (≈ 0.205 µM) and the MIC (Escherichia coli [6]) was 1 µg/mL (≈ 1.71 µM). The MIC (Escherichia coli [7]) was 0.25 µg/mL (≈ 0.427 µM), the MIC (Escherichia coli [8]) was 0.5 µg/mL (≈ 0.854 µM) and the MIC (Escherichia coli [9]) was 0.5 µg/mL (≈ 0.854 µM). The MIC (Staphylococcus aureus [10]) was 2 µg/mL (≈ 3.41 µM) and the MIC (Enterococcus) was 0.12 µg/mL (≈ 0.205 µM).

`CN(C)c1cc(NC(=O)CN2CCCCC2)c(O)c2c1CC1CC3[C@H](N(C)C)C(=O)C(C(N)=O)=C(O)[C@@]3(O)C(=O)C1=C2O` (stereo partly specified) gave an MIC (Escherichia coli [1]) of 0.5 µg/mL (≈ 0.837 µM), an MIC (Staphylococcus aureus [2]) of 0.12 µg/mL (≈ 0.201 µM) and an MIC (Escherichia coli [3]) of 0.5 µg/mL (≈ 0.837 µM). The MIC (Staphylococcus aureus [4]) was 0.25 µg/mL (≈ 0.418 µM), the MIC (Staphylococcus aureus [5]) was 0.12 µg/mL (≈ 0.201 µM) and the MIC (Escherichia coli [6]) was 1 µg/mL (≈ 1.67 µM). For the same compound, the MIC (Escherichia coli [7]) was 0.5 µg/mL (≈ 0.837 µM), the MIC (Escherichia coli [8]) was 0.25 µg/mL (≈ 0.418 µM) and the MIC (Escherichia coli [9]) was 0.5 µg/mL (≈ 0.837 µM). It also gave an MIC (Staphylococcus aureus [10]) of 0.25 µg/mL (≈ 0.418 µM) and an MIC (Enterococcus) of 0.06 µg/mL (≈ 0.1 µM).

With `CN(C)c1cc(NC(=O)CNC2CC3CCC2C3)c(O)c2c1CC1CC3[C@H](N(C)C)C(=O)C(C(N)=O)=C(O)[C@@]3(O)C(=O)C1=C2O` (stereo partly specified) the MIC (Escherichia coli [1]) was 0.5 µg/mL (≈ 0.802 µM), the MIC (Staphylococcus aureus [2]) was 0.25 µg/mL (≈ 0.401 µM) and the MIC (Escherichia coli [3]) was 0.5 µg/mL (≈ 0.802 µM). It also gave an MIC (Staphylococcus aureus [4]) of 0.5 µg/mL (≈ 0.802 µM), an MIC (Staphylococcus aureus [5]) of 0.25 µg/mL (≈ 0.401 µM) and an MIC (Escherichia coli [6]) of 1 µg/mL (≈ 1.6 µM). It also gave an MIC (Escherichia coli [7]) of 0.25 µg/mL (≈ 0.401 µM), an MIC (Escherichia coli [8]) of 0.5 µg/mL (≈ 0.802 µM) and an MIC (Escherichia coli [9]) of 0.5 µg/mL (≈ 0.802 µM). The MIC (Staphylococcus aureus [10]) was 0.5 µg/mL (≈ 0.802 µM) and the MIC (Enterococcus) was 0.12 µg/mL (≈ 0.192 µM).

Compound `CCCCCCCCCCCNCC(=O)Nc1cc(N(C)C)c2c(c1O)C(=O)C1=C(O)[C@]3(O)C(O)=C(C(N)=O)C(=O)[C@@H](N(C)C)C3CC1C2` (stereo partly specified) has an MIC (Escherichia coli [1]) of 32 µg/mL (≈ 46.8 µM), an MIC (Staphylococcus aureus [2]) of 0.5 µg/mL (≈ 0.731 µM) and an MIC (Escherichia coli [3]) of 32 µg/mL (≈ 46.8 µM). It also gave an MIC (Staphylococcus aureus [4]) of 16 µg/mL (≈ 23.4 µM), an MIC (Staphylococcus aureus [5]) of 0.5 µg/mL (≈ 0.731 µM) and an MIC (Escherichia coli [6]) of 32 µg/mL (≈ 46.8 µM). The MIC (Escherichia coli [7]) was 32 µg/mL (≈ 46.8 µM), the MIC (Escherichia coli [8]) was 32 µg/mL (≈ 46.8 µM) and the MIC (Escherichia coli [9]) was 16 µg/mL (≈ 23.4 µM). For the same compound, the MIC (Staphylococcus aureus [10]) was 2 µg/mL (≈ 2.92 µM) and the MIC (Enterococcus) was 2 µg/mL (≈ 2.92 µM).

`CN(C)c1cc(NC(=O)CNC2CCCCCCC2)c(O)c2c1CC1CC3[C@H](N(C)C)C(=O)C(C(N)=O)=C(O)[C@@]3(O)C(=O)C1=C2O` (stereo partly specified) gave an MIC (Escherichia coli [1]) of 4 µg/mL (≈ 6.25 µM), an MIC (Staphylococcus aureus [2]) of 0.25 µg/mL (≈ 0.391 µM) and an MIC (Escherichia coli [3]) of 2 µg/mL (≈ 3.13 µM). The MIC (Staphylococcus aureus [4]) was 1 µg/mL (≈ 1.56 µM), the MIC (Staphylococcus aureus [5]) was 0.5 µg/mL (≈ 0.782 µM) and the MIC (Escherichia coli [6]) was 2 µg/mL (≈ 3.13 µM). The MIC (Escherichia coli [7]) was 0.5 µg/mL (≈ 0.782 µM), the MIC (Escherichia coli [8]) was 2 µg/mL (≈ 3.13 µM) and the MIC (Escherichia coli [9]) was 4 µg/mL (≈ 6.25 µM). The MIC (Staphylococcus aureus [10]) was 0.5 µg/mL (≈ 0.782 µM) and the MIC (Enterococcus) was 0.25 µg/mL (≈ 0.391 µM).

For `CN(C)c1cc(NC(=O)CNCC2CC2)c(O)c2c1CC1CC3[C@H](N(C)C)C(=O)C(C(N)=O)=C(O)[C@@]3(O)C(=O)C1=C2O` (stereo partly specified), the MIC (Escherichia coli [1]) was 0.5 µg/mL (≈ 0.857 µM), the MIC (Staphylococcus aureus [2]) was 0.5 µg/mL (≈ 0.857 µM) and the MIC (Escherichia coli [3]) was 0.5 µg/mL (≈ 0.857 µM). For the same compound, the MIC (Staphylococcus aureus [4]) was 1 µg/mL (≈ 1.71 µM), the MIC (Staphylococcus aureus [5]) was 0.5 µg/mL (≈ 0.857 µM) and the MIC (Escherichia coli [6]) was 4 µg/mL (≈ 6.85 µM). It also gave an MIC (Escherichia coli [7]) of 0.25 µg/mL (≈ 0.428 µM), an MIC (Escherichia coli [8]) of 0.5 µg/mL (≈ 0.857 µM) and an MIC (Escherichia coli [9]) of 0.5 µg/mL (≈ 0.857 µM). The MIC (Staphylococcus aureus [10]) was 4 µg/mL (≈ 6.85 µM) and the MIC (Enterococcus) was 0.25 µg/mL (≈ 0.428 µM).

For `CN(C)c1cc(NC(=O)CNCc2ccccc2)c(O)c2c1CC1CC3[C@H](N(C)C)C(=O)C(C(N)=O)=C(O)[C@@]3(O)C(=O)C1=C2O` (stereo partly specified), the MIC (Escherichia coli [1]) was 2 µg/mL (≈ 3.23 µM), the MIC (Staphylococcus aureus [2]) was 0.25 µg/mL (≈ 0.403 µM) and the MIC (Escherichia coli [3]) was 0.5 µg/mL (≈ 0.807 µM). For the same compound, the MIC (Staphylococcus aureus [4]) was 0.5 µg/mL (≈ 0.807 µM), the MIC (Staphylococcus aureus [5]) was 0.25 µg/mL (≈ 0.403 µM) and the MIC (Escherichia coli [6]) was 4 µg/mL (≈ 6.45 µM). The MIC (Escherichia coli [7]) was 0.5 µg/mL (≈ 0.807 µM), the MIC (Escherichia coli [8]) was 2 µg/mL (≈ 3.23 µM) and the MIC (Escherichia coli [9]) was 0.5 µg/mL (≈ 0.807 µM). For the same compound, the MIC (Staphylococcus aureus [10]) was 2 µg/mL (≈ 3.23 µM) and the MIC (Enterococcus) was 0.25 µg/mL (≈ 0.403 µM).

Work on `CN(C)c1cc(NC(=O)CNCc2ccccn2)c(O)c2c1CC1CC3[C@H](N(C)C)C(=O)C(C(N)=O)=C(O)[C@@]3(O)C(=O)C1=C2O` (stereo partly specified) yielded an MIC (Escherichia coli [1]) of 16 µg/mL (≈ 25.8 µM), an MIC (Staphylococcus aureus [2]) of 4 µg/mL (≈ 6.44 µM) and an MIC (Escherichia coli [3]) of 8 µg/mL (≈ 12.9 µM). The MIC (Staphylococcus aureus [4]) was 8 µg/mL (≈ 12.9 µM), the MIC (Staphylococcus aureus [5]) was 4 µg/mL (≈ 6.44 µM) and the MIC (Escherichia coli [6]) was 32 µg/mL (≈ 51.6 µM). The MIC (Escherichia coli [7]) was 8 µg/mL (≈ 12.9 µM), the MIC (Escherichia coli [8]) was 16 µg/mL (≈ 25.8 µM) and the MIC (Escherichia coli [9]) was 16 µg/mL (≈ 25.8 µM). The MIC (Staphylococcus aureus [10]) was 32 µg/mL (≈ 51.6 µM) and the MIC (Enterococcus) was 2 µg/mL (≈ 3.22 µM).
